Assay results reported in US9770026B2, “Substituted pyrimidine compound and uses thereof” (Shenyang Sinochem Agrochemicals R&D Co., Ltd., priority 2012, dated 2017).

Experiments:
corn rust = assay: protectant activity in vivo against corn rust; details: for pest or weed control at 400 ppm: read-out: protectant activity against corn rust in vivo, 400 ppm
rice blast = assay: microbe, parasite or virus in culture; type: cell-based; details: for inhibition at 25 ppm: read-out: inhibition rate against rice blast, 25 ppm, in vitro; for inhibition rate against rice blast: in vitro
[1] = test system: Green peach aphids (Myzus Persicae Sulzer); assay: bioactivity test against green peach aphid, airbrush foliar spray; type: in vivo; details: Myzus persicae, foliar, 48 h, death rate after 48 hrs
How it was run: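 Aphids (15-30 per cabbage leaf disc) on moist filter paper were airbrush-sprayed at 10 psi, 0.5 mL, with compound from acetone:methanol (1:1) diluted in water with 0.1% tween 80. Held at 25±1 C, 60±5% RH; survivors counted after 48 hrs to give death rates.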

cucumber downy mildew = assay: protectant activity in vivo against cucumber downy mildew; details: Cucumis sativus, 168 h, read-out: protectant activity against cucumber downy mildew in vivo, 400 ppm
wheat powdery mildew = assay: protectant activity in vivo against wheat powdery mildew; details: Triticum aestivum, 168 h; for pest or weed control at 400 ppm: read-out: protectant activity against wheat powdery mildew in vivo, 400 ppm
carmine spider mite = assay: bioactivity test against carmine spider mite, airbrush spray; type: in vivo; details: Tetranychus cinnabarinus, 72 h, mortality after 72 hrs
How it was run: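 Broadbean seedlings infested with adult mites were sprayed with compound (acetone/methanol stock diluted in 0.1% Tween 80 water) by airbrush at 0.7 kg/cm^2, 0.5 ml. Three replicates were run. Mortality was scored after 72 hrs.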

Compound | inhibition at 25 ppm (rice blast; Pyricularia oryzae) [%] | pest or weed control at 400 ppm (corn rust; Zea mays, 168 h) [%] | pest or weed control at 10 ppm [1] [%] | pest or weed control at 100 ppm [1] [%] | pest or weed control at 600 ppm [1] [%] | pest or weed control at 400 ppm (cucumber downy mildew) [%] | pest or weed control at 400 ppm (wheat powdery mildew) [%] | pest or weed control at 100 ppm (carmine spider mite) [%] | pest or weed control at 600 ppm (carmine spider mite) [%] | further results
CCc1c(Cl)c(NCCc2ccc(Oc3ccc(C(F)(F)F)cc3)cc2)nc[n+]1CC(=O)c1ccc(Cl)cc1 [CK50, reference compound] | < 50 | – | – | – | – | – | – | – | – | pest or weed control at 6.25 µg/mL (corn rust; Zea mays, 168 h, read-out: control effect against corn rust (%), 6.25 mg/L, protectant activity): 0%; pest or weed control at 25 µg/mL (corn rust; Zea mays, 168 h, read-out: control effect against corn rust (%), 25 mg/L, protectant activity): 0%; pest or weed control at 100 µg/mL (corn rust; Zea mays, 168 h, read-out: control effect against corn rust (%), 100 mg/L, protectant activity): 0%; pest or weed control at 400 µg/mL (corn rust; Zea mays, 168 h, read-out: control effect against corn rust (%), 400 mg/L, protectant activity): 80%; inhibition at 8.3 ppm (rice blast; Pyricularia oryzae, read-out: inhibition rate against rice blast, 8.3 ppm, in vitro): 0%
FC(F)(F)c1ccc(Oc2ccc(CCNc3ncnc(CCl)c3Cl)cc2)nc1 [Compound I-2922] | – | – | – | – | – | – | – | – | – | protectant activity against corn rust in vivo (corn rust; 100 ppm): 100%; protectant activity against corn rust in vivo (corn rust; 400 ppm): 100%; inhibition rate against rice blast (rice blast; 0.1 ppm): 100%; inhibition rate against rice blast (rice blast; 0.3 ppm): 100%; inhibition rate against rice blast (rice blast; 0.9 ppm): 100%; inhibition rate against rice blast (rice blast; 2.8 ppm): 100%; inhibition rate against rice blast (rice blast; 8.3 ppm): 100%
CCc1nc(C)nc(NCCc2ccc(Oc3ncc(C(N)=O)cc3Cl)cc2)c1Cl [Compound I-6791] | 80 to 99 | 100 | – | – | – | – | – | – | – | pest or weed control at 100 ppm (corn rust; Zea mays, 168 h, read-out: protectant activity against corn rust in vivo, 100 ppm): 80 to 99%
CCc1nc(C)nc(NCCc2ccc(Oc3ncccc3C(F)(F)F)cc2)c1Cl [Compound I-6793] | 80 to 99 | 100 | 80 to 99 | 100 | 100 | 80 to 99 | 100 | – | – | pest or weed control at 25 ppm (wheat powdery mildew; read-out: protectant activity against wheat powdery mildew in vivo, 25 ppm): 100%; pest or weed control at 100 ppm (wheat powdery mildew; read-out: protectant activity against wheat powdery mildew in vivo, 100 ppm): 100%
CCc1nc(C)nc(NCCc2ccc(Oc3ccc(C#N)cn3)cc2)c1Cl [Compound I-6795] | 80 to 99 | 100 | – | – | 100 | – | 100 | 100 | 100 | –
CCc1nc(C)nc(NCCc2ccc(Oc3ccc(C(=O)OC)cn3)cc2)c1Cl [Compound I-6797] | 80 to 99 | – | 80 to 99 | 100 | 100 | 80 to 99 | 80 to 99 | 100 | 100 | –
